In paper PMC11082923 (Journal of Agricultural and Food Chemistry, 2024):
Where two headings read alike, the source gives them in different places.

Legend:
TAS2R16 [1] = target: T1, TAS2R16 (Homo sapiens, UniProt Q9NYV7); test: Fluo4-AM calcium imaging; type: cell-based
T1 sequence (Q9NYV7 1-291): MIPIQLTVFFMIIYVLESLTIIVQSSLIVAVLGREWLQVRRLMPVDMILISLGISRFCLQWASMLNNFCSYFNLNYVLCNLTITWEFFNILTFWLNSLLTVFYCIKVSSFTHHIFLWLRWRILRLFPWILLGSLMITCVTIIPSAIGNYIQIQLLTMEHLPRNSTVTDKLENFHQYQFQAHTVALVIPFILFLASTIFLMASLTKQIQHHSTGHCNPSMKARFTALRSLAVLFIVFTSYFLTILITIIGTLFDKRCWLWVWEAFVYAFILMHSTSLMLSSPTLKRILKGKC

TAS2R16 [2] = target: T1, TAS2R16; test: Fluo4-AM calcium imaging; type: cell-based; settings: agonist; C1 buffer with or without NaCl ([…] NMDG), pH […]

SMILES	EC50 (TAS2R16 [1])	EC50 (TAS2R16 [2])
OCc1ccccc1O[C@@H]1O[C@H](CO)[C@@H](O)[C@H](O)[C@H]1O [D-salicin]	1280 ± 180 µM	–
O=Cc1ccccc1O[C@@H]1O[C@H](CO)[C@@H](O)[C@H](O)[C@H]1O [Helicin]	–	signal saturation of TAS2R16 was achieved with phenyl-βD-glucopyranoside and helicin
OC[C@H]1O[C@@H](Oc2ccccc2)[C@H](O)[C@@H](O)[C@@H]1O [phenyl-βD-glucopyranoside]	–	signal saturation of TAS2R16 was achieved with phenyl-βD-glucopyranoside and helicin
